What all share (assay type): biochemical
One assay deals with T1, NUAK2 (h) (Homo sapiens, UniProt Q9H093).
T1 construct: This assay was done radiometrically using full-length, recombinant enzyme; purchased Eurofins
T1 sequence (Q9H093 1-628): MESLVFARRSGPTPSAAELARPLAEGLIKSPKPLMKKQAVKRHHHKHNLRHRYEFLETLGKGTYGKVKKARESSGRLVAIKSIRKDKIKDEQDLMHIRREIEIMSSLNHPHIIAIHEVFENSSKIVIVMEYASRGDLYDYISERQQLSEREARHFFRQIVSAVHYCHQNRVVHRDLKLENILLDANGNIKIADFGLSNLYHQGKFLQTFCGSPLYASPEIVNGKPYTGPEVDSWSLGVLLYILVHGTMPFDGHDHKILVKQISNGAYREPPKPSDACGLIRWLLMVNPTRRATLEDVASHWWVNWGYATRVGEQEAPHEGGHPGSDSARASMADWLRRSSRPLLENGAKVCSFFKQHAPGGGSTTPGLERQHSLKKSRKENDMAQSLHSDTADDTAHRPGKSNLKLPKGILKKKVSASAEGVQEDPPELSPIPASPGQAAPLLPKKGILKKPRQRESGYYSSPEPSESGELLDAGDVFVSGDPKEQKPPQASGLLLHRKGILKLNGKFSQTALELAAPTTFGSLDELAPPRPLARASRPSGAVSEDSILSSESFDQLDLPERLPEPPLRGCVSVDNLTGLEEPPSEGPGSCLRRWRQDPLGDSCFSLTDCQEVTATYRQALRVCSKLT
The experiment in a line: NUAK2 enzymatic assay (radiometric, Eurofins). Particulars: for IC50: radiometric, full-length recombinant enzyme; for AUR-A (IC50, nM)/NUAK2 (IC50, nM): NUAK2 selectivity over Aurora-A, ratio of IC50s. The method, then: (§1) To identify small molecule NUAK inhibitors, a biochemical NUAK2 enzymatic assay was outsourced to Eurofins. This assay was done radiometrically using full-length, recombinant enzyme. NUAK2 (h) was incubated with 8 mM MOPS pH 7.0, 0.2 mM EDTA, 300 μM […], 10 mM magnesium acetate and […] (specific activity and concentration as required). The reaction was initiated by the addition of the Mg/ATP mix. After incubation for 40 minutes at room temperature, the reaction was stopped by the addition of phosphoric acid to a concentration of 0.5%. 10 μL of the reaction was then spotted onto a P30 filter mat and washed four times for 4 minutes in 0.425% phosphoric acid and once in methanol prior to drying and scintillation counting. Compounds were routinely counter screened against Aurora A and NUAK1. The results are shown in Table 1 where IC50s are reported the following ranges: A: 0.1-10 nM; B: 11-100 nM; C: 101-1000 nM; D: >1000 nM for the compounds of Formula I)

The target of another assay is T2, NUAK1 (Homo sapiens, UniProt O60285).
T2 sequence (O60285 1-661): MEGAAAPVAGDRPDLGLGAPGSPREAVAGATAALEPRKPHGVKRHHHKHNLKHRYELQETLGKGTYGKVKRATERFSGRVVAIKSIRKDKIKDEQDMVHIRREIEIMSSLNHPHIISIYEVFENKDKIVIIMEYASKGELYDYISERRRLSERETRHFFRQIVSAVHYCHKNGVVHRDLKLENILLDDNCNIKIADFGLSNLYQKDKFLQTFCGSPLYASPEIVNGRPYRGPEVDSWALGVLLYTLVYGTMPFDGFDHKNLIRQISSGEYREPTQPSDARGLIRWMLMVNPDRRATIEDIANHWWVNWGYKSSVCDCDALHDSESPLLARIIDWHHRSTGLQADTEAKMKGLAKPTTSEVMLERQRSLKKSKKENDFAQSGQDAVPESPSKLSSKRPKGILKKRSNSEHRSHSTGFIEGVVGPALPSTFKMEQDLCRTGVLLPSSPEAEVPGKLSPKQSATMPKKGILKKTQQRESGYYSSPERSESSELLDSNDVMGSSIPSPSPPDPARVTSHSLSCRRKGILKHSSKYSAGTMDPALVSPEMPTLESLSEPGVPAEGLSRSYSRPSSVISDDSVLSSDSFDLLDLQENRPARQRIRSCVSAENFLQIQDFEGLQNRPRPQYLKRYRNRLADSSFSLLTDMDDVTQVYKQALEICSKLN
In words: NUAK1 counter screen. On the procedure: as §1
In general terms: The purpose of a counterscreen is to sort out artefacts and off-target activity.

In another assay the target is T3, Aurora A (Homo sapiens, UniProt O14965).
T3 sequence (O14965 1-403): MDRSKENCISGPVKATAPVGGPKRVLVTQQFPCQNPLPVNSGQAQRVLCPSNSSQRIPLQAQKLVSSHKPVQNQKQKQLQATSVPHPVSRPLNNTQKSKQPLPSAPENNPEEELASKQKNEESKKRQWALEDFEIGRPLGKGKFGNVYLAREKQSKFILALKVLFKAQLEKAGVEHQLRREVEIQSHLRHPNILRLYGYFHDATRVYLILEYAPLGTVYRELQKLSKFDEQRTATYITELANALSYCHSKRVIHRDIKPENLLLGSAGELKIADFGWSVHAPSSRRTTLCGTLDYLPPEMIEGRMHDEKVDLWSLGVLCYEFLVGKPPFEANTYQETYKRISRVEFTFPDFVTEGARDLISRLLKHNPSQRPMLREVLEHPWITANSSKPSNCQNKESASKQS
The experiment in a line: Aurora A counter screen. Particulars: read-out: AUR-A (IC50). The method, then:
as §1

Molecules are shown by their SMILES. Bounds are passed on as bounds.

Here are results for 16 compounds from patent publication US20240025887A1, “THIENYL AND CYCLOALKYL AMINOPYRIMIDINE COMPOUNDS AS INHIBITORS OF NUAK KINASES, COMPOSITIONS AND USES THEREOF” (Ontario Institute for Cancer Research (OICR), priority 2021, published 2024).

Take `CN1CCN(c2ccc(Nc3ncc(Cl)c(Nc4sccc4C(N)=O)n3)c(OC(F)(F)F)c2)CC1` [Compound I-19, 2-((5-chloro-2-((4-(4-methylpiperazin-1-yl)-2-(trifluoromethoxy)phenyl)amino)pyrimidin-4-yl)amino)thiophene-3-carboxamide]: the IC50 was 11 to 100 nM on NUAK2 (h), 101 to 1000 nM against NUAK1 and above 1000 nM at Aurora A.
With `NC(=O)c1sccc1Nc1nc(Nc2ccc(N3CCOCC3)cc2OC(F)F)ncc1Cl` [Compound I-24, 3-((5-chloro-2-((2-(difluoromethoxy)-4-morpholinophenyl)amino)pyrimidin-4-yl)amino)thiophene-2-carboxamide], the IC50 on NUAK2 (h), at NUAK1 and on Aurora A was 11 to 100 nM in each case.
With `NC(=O)c1sccc1Nc1nc(Nc2ccc(N3CCN4CCOC[C@@H]4C3)cc2OC(F)F)ncc1Cl` [Compound I-49, (S)-3-((5-chloro-2-((2-(difluoromethoxy)-4-(hexahydropyrazino[2,1-c][1,4]oxazin-8(1H)-yl)phenyl)amino)pyrimidin-4-yl)amino)thiophene-2-carboxamide], the IC50 at NUAK2 (h) was 11 to 100 nM; against NUAK1, 11 to 100 nM; on Aurora A, 101 to 1000 nM.
Turning to `CN1CCN(c2ccc(Nc3ncc(Cl)c(Nc4ccsc4C(N)=O)n3)c(OC(F)(F)F)c2)CC1` [Compound I-10, 3-((5-chloro-2-((4-(4-methylpiperazin-1-yl)-2-(trifluoromethoxy)phenyl)amino)pyrimidin-4-yl)amino)thiophene-2-carboxamide], the values for the IC50 on NUAK2 (h), on NUAK1 and on Aurora A were 0.1 to 10 nM, 11 to 100 nM and above 1000 nM, respectively.
On to `CCN1CCN(C2CCN(c3ccc(Nc4ncc(Cl)c(Nc5ccsc5C(N)=O)n4)c(OC(F)F)c3)CC2)CC1` [Compound I-61, 3-((5-chloro-2-((2-(difluoromethoxy)-4-(4-(4-ethylpiperazin-1-yl)piperidin-1-yl)phenyl)amino)pyrimidin-4-yl)amino)thiophene-2-carboxamide], for which the IC50 at NUAK2 (h), on NUAK1 and on Aurora A was 11 to 100 nM each time.
`CC(C)N1C[C@@H]2C[C@H]1CN2c1ccc(Nc2ncc(Cl)c(Nc3ccsc3C(N)=O)n2)c(OC(F)F)c1` (stereo in doubt) [Compound I-35, 3-((5-chloro-2-((2-(difluoromethoxy)-4-((1S,4S)-5-isopropyl-2,5-diazabicyclo[2.2.1]heptan-2-yl)phenyl)amino)pyrimidin-4-yl)amino)thiophene-2-carboxamide]: the IC50 lay within 11 to 100 nM on NUAK2 (h), 11 to 100 nM against NUAK1 and 101 to 1000 nM at Aurora A.
Take `NC(=O)c1ccsc1Nc1nc(Nc2ccc(N3CCNCC3)cc2OC(F)F)ncc1Cl` [Compound I-2, 2-((5-chloro-2-((2-(difluoromethoxy)-4-(piperazin-1-yl)phenyl)amino)pyrimidin-4-yl)amino)thiophene-3-carboxamide]: the IC50 on NUAK2 (h) was 11 to 100 nM; at NUAK1, 11 to 100 nM; at Aurora A it was above 1000 nM.
For the compound `COc1c(Nc2ncc(Cl)c(Nc3ccsc3C(N)=O)n2)ccc(N2CCN(C)CC2)c1F` [Compound C-2, reference compound], the “AUR-A (IC50, nM)/NUAK2 (IC50, nM)” value on NUAK2 (h) worked out at 71. The IC50 lay within 0.1 to 10 nM on NUAK2 (h), 0.1 to 10 nM on NUAK1 and 101 to 1000 nM on Aurora A.
As to `NC(=O)c1sccc1Nc1nc(Nc2ccc(N3CCC(O)CC3)cc2OC(F)F)ncc1Cl` [Compound I-60, 3-((5-chloro-2-((2-(difluoromethoxy)-4-(4-hydroxypiperidin-1-yl)phenyl)amino)pyrimidin-4-yl)amino)thiophene-2-carboxamide], the IC50 at NUAK2 (h), at NUAK1 and on Aurora A was 11 to 100 nM each time.
Turning to `CN1CCN(c2cc(OC(F)F)c(Nc3ncc(Cl)c(Nc4ccsc4C(N)=O)n3)cc2F)CC1` [Compound I-6, 3-((5-chloro-2-((2-(difluoromethoxy)-5-fluoro-4-(4-methylpiperazin-1-yl)phenyl)amino)pyrimidin-4-yl)amino)thiophene-2-carboxamide], the IC50 was in the range of 11 to 100 nM on NUAK2 (h), 11 to 100 nM on NUAK1 and 101 to 1000 nM on Aurora A.
`CN(C)[C@@H]1CCN(c2ccc(Nc3ncc(Cl)c(Nc4ccsc4C(N)=O)n3)c(OC(F)F)c2)C1` [Compound I-55, (R)-3-((5-chloro-2-((2-(difluoromethoxy)-4-(3-(dimethylamino)pyrrolidin-1-yl)phenyl)amino)pyrimidin-4-yl)amino)thiophene-2-carboxamide]: the results for the IC50 on NUAK2 (h), on NUAK1 and at Aurora A were 11 to 100 nM, 0.1 to 10 nM and 101 to 1000 nM, respectively.
Taken in the same sequence, the figures for `CC(C)(C)N1CCN(C2CCN(c3ccc(Nc4ncc(C(F)(F)F)c(Nc5ccsc5C(N)=O)n4)c(OC(F)F)c3)CC2)CC1` [Compound I-79, 3-((2-((4-(4-(4-(tert-butyl)piperazin-1-yl)piperidin-1-yl)-2-(difluoromethoxy)phenyl)amino)-5-(trifluoromethyl)pyrimidin-4-yl)amino)thiophene-2-carboxamide] were 11 to 100 nM, 11 to 100 nM and 101 to 1000 nM.
Taken in the same sequence, the figures for `CN1CCC(N(C)c2ccc(Nc3ncc(Cl)c(Nc4ccsc4C(N)=O)n3)c(OC(F)F)c2)CC1` [Compound I-66, 3-((5-chloro-2-((2-(difluoromethoxy)-4-(methyl(1-methylpiperidin-4-yl)amino)phenyl)amino)pyrimidin-4-yl)amino)thiophene-2-carboxamide] were 11 to 100 nM, 11 to 100 nM and 101 to 1000 nM.
Taken in the same sequence, the figures for `NC(=O)c1ccsc1Nc1nc(Nc2ccc(N3CCN(CC(F)(F)F)CC3)cc2OC(F)F)ncc1Cl` [Compound I-34, 2-((5-chloro-2-((2-(difluoromethoxy)-4-(4-(2,2,2-trifluoroethyl)piperazin-1-yl)phenyl)amino)pyrimidin-4-yl)amino)thiophene-3-carboxamide] were 101 to 1000 nM, 101 to 1000 nM and 101 to 1000 nM.
For the compound `CN1CCN(c2ccc(Nc3ncc(Cl)c(N[C@@H]4CCC[C@@H]4C(N)=O)n3)c(C(F)(F)F)c2)CC1` [Compound I-84, (1S,2R)-2-((5-chloro-2-((4-(4-methylpiperazin-1-yl)-2-(trifluoromethyl)phenyl)amino)pyrimidin-4-yl)amino)cyclopentane-1-carboxamide], the figures for the IC50 on NUAK2 (h), against NUAK1 and at Aurora A were 11 to 100 nM, 101 to 1000 nM and above 1000 nM, respectively.
As for `Cc1c(Nc2ncc(Cl)c(Nc3ccsc3C(N)=O)n2)ccc(N2CCN(C)CC2)c1F` [Compound C-5, reference compound], at NUAK2 (h), the “AUR-A (IC50, nM)/NUAK2 (IC50, nM)” value worked out at 14. Besides, the IC50 at NUAK2 (h) lay within 0.1 to 10 nM; at NUAK1, 11 to 100 nM; on Aurora A, 101 to 1000 nM.

One may read the IC50 as the point on the concentration scale where inhibition reaches its midpoint.
